This is an account of results in patent publication US12595230B2, “Substituted 6,7-dihydro-5H-benzo[7]annulene compounds and their derivatives, processes for their preparation and therapeutic uses thereof” (Sanofi, priority 2020, dated 2026).

This experiment deals with T1, ERα (Homo sapiens, UniProt P03372).
T1 construct: host or cells: MCF7
T1 sequence (P03372 1-595): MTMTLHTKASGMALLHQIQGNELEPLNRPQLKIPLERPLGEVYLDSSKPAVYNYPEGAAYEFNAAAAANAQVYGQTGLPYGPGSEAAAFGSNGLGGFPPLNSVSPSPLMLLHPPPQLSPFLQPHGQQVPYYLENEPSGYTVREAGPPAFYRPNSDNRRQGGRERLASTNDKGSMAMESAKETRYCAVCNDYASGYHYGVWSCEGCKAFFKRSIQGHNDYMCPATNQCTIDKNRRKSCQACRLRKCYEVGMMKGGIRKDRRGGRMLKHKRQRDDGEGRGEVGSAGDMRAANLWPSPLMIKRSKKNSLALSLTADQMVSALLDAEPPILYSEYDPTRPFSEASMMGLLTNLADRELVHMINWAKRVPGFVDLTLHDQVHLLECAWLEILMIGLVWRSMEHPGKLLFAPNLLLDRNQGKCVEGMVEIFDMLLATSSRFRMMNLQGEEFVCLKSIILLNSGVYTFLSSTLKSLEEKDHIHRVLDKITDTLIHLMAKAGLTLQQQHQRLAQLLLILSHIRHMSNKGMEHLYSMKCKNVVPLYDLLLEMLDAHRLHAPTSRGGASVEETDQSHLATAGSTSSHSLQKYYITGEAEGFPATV
The experiment can be described thus: Estrogen receptor degradation activity: breast cancer cell ERα in cell western assay (MCF7 cells). It is filed as cell-based. The note with it: for % Degradation At 0.3 μM: 4 hours, relative to fulvestrant 0.1 μM positive control; for DC50: 4 hours post compound addition, concentration which degrades 50% of the estrogen receptor, read-out: Degradation IC50. Summed up: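 Compounds were applied to MCF7 cells in stripped-serum, phenol red-free medium for 4 h at final 0.3–0.0000018 μM, with fulvestrant (0.1 μM) as control. Value: IC50 (nM) for 50% ERα degradation.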

As to `CC(O)(c1ccc(C2=C(c3ccc(Cl)cc3Cl)CCCc3cc(C(=O)O)ccc32)cc1)C1CN(CCCF)C1.Cl` (single isomer, unassigned; isomer 2) [Example 236, 8-(2,4-dichlorophenyl)-9-(4-(1-(1-(3-fluoropropyl)azetidin-3-yl)-1-hydroxyethyl)phenyl)-6,7-dihydro-5H-benzo[7]annulene-3-carboxylic Acid, Hydrochloride Isomer 2], the “% Degradation At 0.3 μM” value turned out to be 100% and the DC50 was 0.4 nM.

Consider `Cc1ccc(C2=C(c3ccc(CC4CN(CCCF)C4)cc3)c3ccc(C(=O)O)cc3CCC2)c(F)c1F.Cl` [Example 210, 8-(2,3-difluoro-4-methylphenyl)-9-(4-((1-(3-fluoropropyl)azetidin-3-yl)methyl)phenyl)-6,7-dihydro-5H-benzo[7]annulene-3-carboxylic acid hydrochloride], for which the “% Degradation At 0.3 μM” value is given as 88% and the DC50 was determined as 0.3 nM.

With `CC1CCc2cc(C(=O)O)ccc2C(c2ccc(CC3CN(CCCF)C3)cc2)=C1c1ccc(F)cc1C(F)(F)F` (racemic) [Example 312, 8-(4-fluoro-2-(trifluoromethyl)phenyl)-9-(4-((1-(3-fluoropropyl)azetidin-3-yl)methyl)phenyl)-7-methyl-6,7-dihydro-5H-benzo[7]annulene-3-carboxylic acid], the “% Degradation At 0.3 μM” value came out at 91% and the DC50 was 0.3 nM.

For `O=C(O)c1ccc2c(c1)CCCC(c1cc(F)c(F)c(F)c1)=C2c1ccc(CC2CN(CCCF)C2)cc1` [Example 267, 9-(4-((1-(3-fluoropropyl)azetidin-3-yl)methyl)phenyl)-8-(3,4,5-trifluorophenyl)-6,7-dihydro-5H-benzo[7]annulene-3-carboxylic acid], the “% Degradation At 0.3 μM” value stood at 89% and the DC50 stood at 0.8 nM.

Take `COc1cc(F)ccc1C1=C(c2ccc(CC3CN(CCCF)C3)cc2)c2ccc(C(=O)O)cc2CCC1` [Example 36, 8-(4-fluoro-2-methoxyphenyl)-9-(4-((1-(3-fluoropropyl)azetidin-3-yl)methyl)phenyl)-6,7-dihydro-5H-benzo[7]annulene-3-carboxylic acid]: the “% Degradation At 0.3 μM” value was 89% and the DC50 amounted to 0.6 nM.

Consider `NC(c1ccc(C2=C(c3ccc(Cl)cc3Cl)CCCc3cc(C(=O)O)ccc32)cc1)C1CN(CCCF)C1` (single isomer, unassigned; isomer 1) [Example 243, 9-(4-(amino(1-(3-fluoropropyl)azetidin-3-yl)methyl)phenyl)-8-(2,4-dichlorophenyl)-6,7-dihydro-5H-benzo[7]annulene-3-carboxylic Acid Isomer 1], for which the “% Degradation At 0.3 μM” value was 78% and the DC50 was 15.6 nM.

Take `Cc1cc(F)ccc1C1=C(c2ccc(CC3CN(CCCF)C3)cc2)c2ccc(C(=O)O)cc2CCC1` [Example 33, 8-(4-fluoro-2-methylphenyl)-9-(4-((1-(3-fluoropropyl)azetidin-3-yl)methyl)phenyl)-6,7-dihydro-5H-benzo[7]annulene-3-carboxylic acid]: the “% Degradation At 0.3 μM” value amounted to 89% and the DC50 was 0.2 nM.

`CC(C)CC1=C(c2ccc(CC3CN(CCCF)C3)cc2)c2ccc(C(=O)O)cc2CCC1` [Example 37, 9-(4-((1-(3-fluoropropyl)azetidin-3-yl)methyl)phenyl)-8-isobutyl-6,7-dihydro-5H-benzo[7]annulene-3-carboxylic acid]: the “% Degradation At 0.3 μM” value is recorded as 87% and the DC50 was determined as 0.4 nM.

As to `Cc1ccc(C2=C(c3ccc(CC4CN(CCCF)C4)cc3)c3ccc(C(=O)O)cc3CCC2)c(C(F)(F)F)c1.Cl` [Example 213, 9-(4-((1-(3-fluoropropyl)azetidin-3-yl)methyl)phenyl)-8-(4-methyl-2-(trifluoromethyl)phenyl)-6,7-dihydro-5H-benzo[7]annulene-3-carboxylic acid hydrochloride], the “% Degradation At 0.3 μM” value came to 94% and the DC50 was 0.2 nM.

In the case of `O=C(O)c1ccc2c(c1)CCCC(c1ccccc1Cl)=C2c1ccc(CC2CN(CCCF)C2)cn1` [Example 252, 8-(2-chlorophenyl)-9-(5-((1-(3-fluoropropyl)azetidin-3-yl)methyl)pyridin-2-yl)-6,7-dihydro-5H-benzo[7]annulene-3-carboxylic Acid], the “% Degradation At 0.3 μM” value came out at 67% and the DC50 came out at 48.6 nM.

With `Cl.O=C(O)c1ccc2c(c1)SCCC(c1ccc(Cl)cc1Cl)=C2c1ccc(CC2CN(CCCF)C2)cc1` [Example 52, 4-(2,4-dichlorophenyl)-5-(4-((1-(3-fluoropropyl)azetidin-3-yl)methyl)phenyl)-2,3-dihydrobenzo[b]thiepine-8-carboxylic acid], the “% Degradation At 0.3 μM” value is recorded as 54% and the DC50 worked out at 255 nM.

`O=C(O)c1ccc2c(c1)CCCC(c1ccc(Cl)cc1Cl)=C2c1ccc(CC2CN(CCCF)C2)cc1` [Example 2, 8-(2,4-dichlorophenyl)-9-(4-((1-(3-fluoropropyl)azetidin-3-yl)methyl)phenyl)-6,7-dihydro-5H-benzo[7]annulene-3-carboxylic Acid]: the “% Degradation At 0.3 μM” value was determined as 91% and the DC50 amounted to 0.3 nM.

In the case of `Cc1cc(C2=C(c3ccc(CC4CN(CCCF)C4)cc3)c3ccc(C(=O)O)cc3CCC2)cn(C)c1=O` [Example 209, 8-(1,5-dimethyl-6-oxo-1,6-dihydropyridin-3-yl)-9-(4-((1-(3-fluoropropyl)azetidin-3-yl)methyl)phenyl)-6,7-dihydro-5H-benzo[7]annulene-3-carboxylic acid], the “% Degradation At 0.3 μM” value came out at 100% and the DC50 was found to be 88.7 nM.

On to `O=C(O)c1ccc2c(c1)CCCC(c1ccccc1C(F)(F)F)=C2c1ccc(CC2CN(CCCF)C2)cc1` [Example 23, 9-(4-((1-(3-fluoropropyl)azetidin-3-yl)methyl)phenyl)-8-(2-(trifluoromethyl)phenyl)-6,7-dihydro-5H-benzo[7]annulene-3-carboxylic acid], for which the “% Degradation At 0.3 μM” value stood at 91% and the DC50 stood at 0.2 nM.

Take `O=C([O-])c1ccc2c(c1)OCCC(c1ccc(F)cc1Cl)=C2c1ccc(CC2CN(CCCF)C2)cc1.[Na+]` [Example 264, sodium 4-(2-chloro-4-fluorophenyl)-5-(4-((1-(3-fluoropropyl)azetidin-3-yl)methyl)phenyl)-2,3-dihydrobenzo[b]oxepine-8-carboxylate]: the “% Degradation At 0.3 μM” value worked out at 95% and the DC50 is 1.1 nM.

Turning to `Cl.O=C(O)c1ccc2c(c1)CCCC(c1c(F)cc(F)cc1C(F)F)=C2c1ccc(CC2CN(CCCF)C2)cc1` [Example 284, 8-(2-(difluoromethyl)-4,6-difluorophenyl)-9-(4-((1-(3-fluoropropyl)azetidin-3-yl)methyl)phenyl)-6,7-dihydro-5H-benzo[7]annulene-3-carboxylic acid hydrochloride], the “% Degradation At 0.3 μM” value stood at 96% and the DC50 worked out at 0.3 nM.

In the case of `Cc1ccc(C2=C(c3ccc(CC4CN(CCCF)C4)cc3)c3ccc(C(=O)O)cc3CCC2)c(C)c1.Cl` [Example 10, 8-(2,4-dimethylphenyl)-9-(4-((1-(3-fluoropropyl)azetidin-3-yl)methyl)phenyl)-6,7-dihydro-5H-benzo[7]annulene-3-carboxylic acid], the “% Degradation At 0.3 μM” value worked out at 92% and the DC50 was found to be 0.3 nM.
